In US20250289827A1, “MORPHIC FORMS OF A MUTANT BRAF DEGRADER AND METHODS OF MANUFACTURE THEREOF” (C4 THERAPEUTICS, INC., priority 2022, published 2025):
In brackets after ≈: the same amount, converted by molar mass. Entries after “also recorded” stand apart in the source; their conditions may differ.

Tests used:
[1] = Equilibration with solvents at 25° C. for 4 weeks (XRPD); type: physicochemical
Method: About 50 mg of Compound 1 free Form A was equilibrated in 0.1-1 mL of solvents at 25° C. for 4 weeks with a stirring bar on a magnetic stirring plate at a rate of 300 rpm. The obtained suspensions were filtered through a 0.45 μm nylon membrane filter by centrifugation at 14,000 rpm. Solid parts (wet cakes) were investigated by XRPD.

[2] = Crystallization at room temperature by slow evaporation; type: physicochemical
Method: About 30 mg of Compound 1 Form A was dissolved in 0.2-10 mL of solvents. Obtained solutions were filtered through a 0.45 μm syringe membrane filter. […] Solid residues were investigated by XRPD.

[3] = Bulk stability of Compound 1 Form B (1 week stress); type: physicochemical; details: for Bulk (XRPD) crystallinity / Bulk (XRPD) form / Color / Purity, Bulk (HPLC): Solid state
Method: Compound 1 Form B was placed at 25° C./92% RH in an open container, at 40° C./75% RH in an open container and at 60RC in a closed container for 1 week. Samples after the stress were characterized by XRPD and HPLC and inspected for color change.

[4] = Solubility in aqueous pH buffers and bio-relevant fluids at 37° C.; type: physicochemical; details: for Solubility 2 h / Solubility 24 h: LOQ: 1.5 μg/mL; for solubility at 2 h / solubility at 24 h: thermodynamic from solid
Method: Solubility of the Form B and sodium salt Form F was measured in 7 aqueous pH buffers and bio-relevant fluids including pH 1.2 HCl solution (0.2N), pH 4.5 acetate buffer (50 mM), pH 6.8 phosphate buffer (50 mM), pH 2.0 SGF, pH 6.5 FaSSIF-v1, pH 5.0 FeSSIF-v1 and water at 37° C. for 2 h and 24 h, respectively.
Accurate 20 mg of the Form B was weighed into a 20 mL glass vial. Then, 10 mL of solubility medium was added. The sodium salt Form F amount used was equivalent to 20 mg anhydrous form. Obtained suspensions were stirred at 37° C. at 400 rpm and sampled at 2 hours and at 24 hours, respectively. The samples were centrifuged at 37° C. at 4,000 rpm for 4 min. Supernatants were analyzed by HPLC and pH meter for solubility and pH value, respectively. Residual solids (wet cakes) from the 24 hours samples were also characterized by XRPD to determine physical form.

A375 cells = experiment: A375 cell growth inhibition; type: cell-based; details: Homo sapiens, A-375, 96 hr
BCS / DCS classification = details: initial studies
Text: Initial studies indicate Compound 1 is a Biopharmaceutics Classification System (BCS) Class II and a Developability Classification System (DCS) Class IIb molecule.

[5] = Acetone/water (v:v = 86:14) a.w. = 0.6
[6] = Acetonitrile/water (v:v = 96:4) a.w. = 0.6
[7] = DMF/water (v:v = 73:27) a.w. = 0.6
[8] = Methanol/water (v:v = 69:31) a.w. = 0.6
[9] = THF/water (v:v = 82:18) a.w. = 0.9
[10] = THF/water (v:v = 92:8) a.w. = 0.6
[11] = 25° C./92% RH, open container, 1 week
[12] = 40° C./75% RH, open container, 1 week
[13] = 60° C., tight container, 1 week
[14] = pH 4.5 acetate buffer (50 mM), 37° C.
[15] = pH 6.8 phosphate buffer (50 mM), 37° C.
[16] = simulated gastric fluid, SGF, pH 2.0, 37° C.
[17] = simulated gastric fluid, pH 1.2 HCl solution (0.2N), 37° C.

CCN(C)S(=O)(=O)Nc1ccc(F)c(Oc2ccc3ncn([C@H]4COC5(CCN(C(=O)CC6(O)CCN(c7cc8c(cc7F)c(N7CCC(=O)NC7=O)nn8C)CC6)CC5)C4)c(=O)c3c2)c1C#N [Compound 1 Form A]
Comments ([1]; 1,4-Dioxane/heptane (v:v = 1:1)): Sticky material | Comments ([1]; 2-MeTHF): Medium crystallinity | XRPD (solid form after equilibration) ([1]; 2-MeTHF): Form C | Comments ([1]; Acetone): Medium crystallinity | XRPD (solid form after equilibration) ([1]; Acetone): Form B | XRPD (solid form after equilibration) ([1]; Acetone/water (v:v = 36:64) a.w. = 0.9): Almost amorphous | Comments [1, 5]: Clear solution | Comments: concentration of clear solution [1, 5]: (about 500 mg/mL) | Comments ([1]; Acetonitrile): Medium crystallinity | XRPD (solid form after equilibration) ([1]; Acetonitrile): Form B | Comments ([1]; Acetonitrile/water (v:v = 42:58) a.w. = 0.9): Sticky material | Comments (crystallinity) [1, 6]: Medium | XRPD (solid form after equilibration) [1, 6]: Form B | Comments ([1]; DCM/heptane (v:v = 1:1)): Sticky material | Comments ([1]; DCM/methanol (v:v = 1:1)): Clear solution | Comments: concentration of clear solution ([1]; DCM/methanol (v:v = 1:1)): (about 500 mg/mL) | Comments ([1]; DMF): Clear solution | Comments: concentration of clear solution ([1]; DMF): (about 500 mg/mL) | XRPD (solid form after equilibration) ([1]; DMF/water (v:v = 30:70) a.w. = 0.9): Almost amorphous | Comments [1, 7]: Clear solution | Comments: concentration of clear solution [1, 7]: (about 500 mg/mL) | XRPD (solid form after equilibration) ([1]; DMSO/water (v:v = 23:77) a.w. = 0.9): Almost amorphous | XRPD (solid form after equilibration) ([1]; DMSO/water (v:v = 57:43) a.w. = 0.6): Almost amorphous | Comments ([1]; Ethanol): Low crystallinity | XRPD (solid form after equilibration) ([1]; Ethanol): Form A | Comments ([1]; Ethyl acetate): Medium crystallinity | XRPD (solid form after equilibration) ([1]; Ethyl acetate): Form C* | Comments ([1]; Isopropanol): Low crystallinity | XRPD (solid form after equilibration) ([1]; Isopropanol): Form A | Comments ([1]; Isopropyl acetate): Low crystallinity | XRPD (solid form after equilibration) ([1]; Isopropyl acetate): Form A | Comments ([1]; MTBE): Low crystallinity | XRPD (solid form after equilibration) ([1]; MTBE): Form A | Comments ([1]; Methanol): Low crystallinity | XRPD (solid form after equilibration) ([1]; Methanol): Form B | XRPD (solid form after equilibration) ([1]; Methanol/water (v:v = 22:78) a.w. = 0.9): Almost amorphous | Comments [1, 8]: Low crystallinity | XRPD (solid form after equilibration) [1, 8]: Form B | Comments ([1]; Methyl ethyl ketone): Medium crystallinity | XRPD (solid form after equilibration) ([1]; Methyl ethyl ketone): Form B | Comments ([1]; THF/heptane (v:v = 1:1)): Medium crystallinity | XRPD (solid form after equilibration) ([1]; THF/heptane (v:v = 1:1)): Form B | Comments [1, 9]: Clear solution | Comments: concentration of clear solution [1, 9]: (about 500 mg/mL) | Comments [1, 10]: Clear solution | Comments: concentration of clear solution [1, 10]: (about 500 mg/mL) | Comments ([1]; Toluene): Low crystallinity | XRPD (solid form after equilibration) ([1]; Toluene): Form A | Comments ([2]; 1,4-Dioxane): Glassy material | Comments ([2]; Acetone): Glassy material | XRPD ([2]; Acetonitrile): Amorphous form | XRPD ([2]; DCM): Almost amorphous form | XRPD ([2]; DCM/methanol (v:v = 1:1)): Almost amorphous form | XRPD ([2]; Ethyl acetate): Amorphous form | XRPD ([2]; Methanol): Almost amorphous form | Comments ([2]; Methyl ethyl ketone): Glassy material | Comments ([2]; THF): Glassy material

CCN(C)S(=O)(=O)Nc1ccc(F)c(Oc2ccc3ncn([C@H]4COC5(CCN(C(=O)CC6(O)CCN(c7cc8c(cc7F)c(N7CCC(=O)NC7=O)nn8C)CC6)CC5)C4)c(=O)c3c2)c1C#N [Compound 1 Form B]
Bulk (XRPD) crystallinity [3, 11]: No change in crystallinity | Bulk (XRPD) form [3, 11]: Form B | Color [3, 11]: No change of color | Purity, Bulk (HPLC) [3, 11]: 99.2% | Bulk (XRPD) crystallinity [3, 12]: No change in crystallinity | Bulk (XRPD) form [3, 12]: Form B | Color [3, 12]: No change of color | Purity, Bulk (HPLC) [3, 12]: 99.3% | Bulk (XRPD) crystallinity [3, 13]: No change in crystallinity | Bulk (XRPD) form [3, 13]: Form B | Color [3, 13]: No change of color | Purity, Bulk (HPLC) [3, 13]: 99.3% | Bulk (XRPD) form ([3]; photo (visible light, 1.2 million lux-hrs)): Form B | Bulk stability (purity, crystal form, crystallinity) ([3]; one week, 25° C./92% RH open, 40° C./75% RH open, 60° C. tight container): excellent chemical and physical stability without any changes in purity, crystal form and crystallinity; also recorded: excellent chemical and physical stability without any changes in purity, crystal form and/or crystallinity | pH of supernatant 24 h ([4]; FaSSIF-v1, pH 6.5, 37° C.): pH = 6.5 | Solubility 2 h ([4]; FaSSIF-v1, pH 6.5, 37° C.): <LOQ | Solubility 24 h ([4]; FaSSIF-v1, pH 6.5, 37° C.): <LOQ | pH of supernatant 24 h ([4]; FeSSIF-v1, pH 5.0, 37° C.): (pH = 5.0) | pH of supernatant 24 h ([4]; SGF, pH 2.0, 37° C.): (pH = 2.1) | pH of supernatant 24 h ([4]; Water, 37° C.): (pH = 7.0) | Solubility 2 h ([4]; Water, 37° C.): <LOQ | pH range of morphic form stability in aqueous media ([4]; aqueous media): 1.2 to 7.0 | pH dependence of solubility ([4]; aqueous media, 37° C.): pH dependent solubility | pH of supernatant 24 h ([4]; pH 1.2 HCl solution (0.2N), 37° C.): (pH = 0.9) | pH of supernatant 24 h [4, 14]: (pH = 4.5) | Solubility 2 h [4, 14]: <LOQ | Solubility 24 h [4, 14]: <LOQ | pH of supernatant 24 h [4, 15]: (pH = 6.8) | Solubility 2 h [4, 15]: <LOQ | Solubility 24 h [4, 15]: <LOQ | Form change after solubility test ([4]; residual solids, 24 hours, XRPD): no form change | solubility at 2 h [4, 16]: 3.8 µg/mL (≈ 3.97 µM) | solubility at 24 h [4, 16]: 5.2 µg/mL (≈ 5.43 µM) | solubility at 2 h [4, 17]: 11.7 µg/mL (≈ 12.2 µM) | solubility at 24 h [4, 17]: 28 µg/mL (≈ 29.2 µM) | solubility at 2 h ([4]; FeSSIF-v1, pH 5.0, 37° C.): 4.8 µg/mL (≈ 5.01 µM) | solubility at 24 h ([4]; FeSSIF-v1, pH 5.0, 37° C.): 6.7 µg/mL (≈ 6.99 µM) | solubility at 24 h ([4]; Water, 37° C.): 4.6 µg/mL (≈ 4.8 µM)

CCN(C)S(=O)(=O)Nc1ccc(F)c(Oc2ccc3ncn([C@H]4COC5(CCN(C(=O)CC6(O)CCN(c7cc8c(cc7F)c(N7CCC(=O)NC7=O)nn8C)CC6)CC5)C4)c(=O)c3c2)c1C#N [Compound 1, (3R)-3-[6-[2-cyano-3-[[ethyl(methyl)sulfamoyl]amino]-6-fluorophenoxy]-4-oxoquinazolin-3-yl]-8-[2-[1-[3-(2,4-dioxo-1,3-diazinan-1-yl)-5-fluoro-1-methylindazol-6-yl]-4-hydroxypiperidin-4-yl]acetyl]-1-oxa-8-azaspiro[4.5]decane]
GI50 (A375 cells): 94 nM | Biopharmaceutics Classification System (BCS) class (BCS / DCS classification): Class II | Developability Classification System (DCS) class (BCS / DCS classification): Class IIb
